Usually % inhibition stands for how much of the control response was suppressed. Low readings indicate a weak effect, high ones a strong effect. What is called inhibition is the change of the read-out against control, counted positive when it falls.

These results are taken from article PMC6934184, “Selective DNA-PKcs inhibition extends the therapeutic index of localized radiotherapy and chemotherapy” (The Journal of Clinical Investigation, 2019).

This test has as its target T1, PIK3C3 (hVPS34) (Homo sapiens, UniProt Q8NEB9).
T1 construct: purchased Thermo Fisher Scientific (Life Technologies) SelectScreen
The experiment in a line: SelectScreen Adapta. In kind it is biochemical. The note with it: ATP Km app. The procedure, abridged:
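SelectScreen broad panel; activity (Z'LYTE, Adapta) plus binding formats. ATP: Km app for CSF1R Z'LYTE; 10 for CAMK1 Adapta. Readout = % per kinase.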

T1 sequence (Q8NEB9 whole entry): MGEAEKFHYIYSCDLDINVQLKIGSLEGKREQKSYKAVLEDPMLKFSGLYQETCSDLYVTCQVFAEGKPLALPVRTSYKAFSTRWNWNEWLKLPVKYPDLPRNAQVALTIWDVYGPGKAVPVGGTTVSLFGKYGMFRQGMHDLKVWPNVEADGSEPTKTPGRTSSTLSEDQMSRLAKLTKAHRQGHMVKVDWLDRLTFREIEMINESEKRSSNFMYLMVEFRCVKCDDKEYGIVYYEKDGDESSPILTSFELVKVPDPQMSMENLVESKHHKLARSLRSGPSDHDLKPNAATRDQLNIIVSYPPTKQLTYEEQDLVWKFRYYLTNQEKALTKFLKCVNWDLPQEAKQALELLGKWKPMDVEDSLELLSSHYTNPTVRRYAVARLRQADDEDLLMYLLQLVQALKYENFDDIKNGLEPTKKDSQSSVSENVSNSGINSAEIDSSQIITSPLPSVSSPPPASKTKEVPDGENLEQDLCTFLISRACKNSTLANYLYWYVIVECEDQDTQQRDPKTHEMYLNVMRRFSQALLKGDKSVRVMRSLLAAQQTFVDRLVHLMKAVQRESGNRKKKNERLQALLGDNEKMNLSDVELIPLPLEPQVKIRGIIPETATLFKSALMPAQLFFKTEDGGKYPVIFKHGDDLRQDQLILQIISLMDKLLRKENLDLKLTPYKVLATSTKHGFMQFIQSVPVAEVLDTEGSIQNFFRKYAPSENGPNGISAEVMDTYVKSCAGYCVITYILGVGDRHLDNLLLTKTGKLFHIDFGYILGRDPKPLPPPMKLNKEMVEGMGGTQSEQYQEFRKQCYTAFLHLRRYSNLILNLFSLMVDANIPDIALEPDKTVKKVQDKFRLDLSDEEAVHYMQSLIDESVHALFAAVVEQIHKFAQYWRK

Take `CN(C(=O)CN1CCOCC1)c1ccc2sc3c(-c4cccc5c(=O)cc(N6CC7CCC(C6)O7)oc45)cccc3c2c1` [NU5455]: the inhibition at 1 µM amounted to 85.9%. Further, for the setting “1 µM”, the “% inhibition” value was determined as 86%.
